From patent US5776944A, “7-(4-aminomethyl-3-methyloxyiminopyrroplidin-1-yl)-1-cyclopropyl-6-flu oro-4-oxo-1,4-dihydro-1,8-naphthyridine-3-carboxylic acid and the process for the preparation thereof” (LG Chemical Ltd., priority 1994, dated 1998)
Values after ≈ are worked out from the molar mass of the structure shown. “Also recorded” adds a separate entry of the source.

What was measured:
[1] = Moisture adsorption test of the anhydride; type: physicochemical; conditions: 25° C.
Experimental: Under various relative humidities at 25° C., the moisture adsorption velocity and the equilibrium moisture content of the anhydride prepared in Example 203 were determined by means of an automatic moisture adsorption analyzer (MB 300 G Gravimetric Sorption Analyzer). This instrument produces a specific relative humidity at a specific temperature and continuously records the weight change of a sample due to adsorption or desorption of moisture as measured by a micro balance inside the instrument. 16 mg of the anhydride sample was loaded on the micro balance and the moisture contained in the sample was removed under a dry nitrogen stream at 50° C. A weight change of less than 5 μg per 5 minutes was the criterion for complete dryness. Thereafter, the inner temperature was adjusted to 25° C., and the sample was tested varying the relative humidity from 0 to 95% at 5% intervals. The sample was considered to have reached equilibrium at each relative humidity tested when the weight change was less than 5 μg per 5 minutes. […] In most cases, the equilibrium was reached within 2 hours.

[2] = Thermal analysis (Differential Scanning Calorimetry); type: physicochemical; conditions: DSC, 10° C./min
Experimental: For the Differential Scanning Calorimetry, METTLER TOLEDO DSC821e and METTLER TOLEDO STARe System were used. 3.7 mg of sample was weighed into the aluminum pan, which was then press sealed with an aluminum lid. After three tiny needle holes were made on the lid, the sample was tested by heating from normal temperature to 250° C. at a rate of 10° C./min.

[3] = Humidification of the anhydride with humidified nitrogen (Example 205); type: physicochemical
Experimental: A sonicator filled with water was adjusted to 40° C. and was sealed with a lid. Then, a nitrogen introducing tube and a nitrogen excreting tube were connected to the vessel. When the pressure of the dried nitrogen introduced through the nitrogen introducing tube was adjusted to 20 psi, the relative humidity of the humidified nitrogen excreted through the excreting tube was more than 93%. […] Samples were taken after 0, 5, 10, 20, 30, and 60 minutes, respectively, and the moisture content with the lapse of time was measured. From the results shown in FIG. 8, it can be seen that moisture content of about 10% is constantly maintained when the humidifying procedure is carried out over 30 minutes. The X-ray diffraction pattern of the humidified sample was identical to that the 3 hydrate obtained after recrystallization.

[4] = tested on: Citrobacter diversus 2046E; assay: In vitro antibacterial activity (MIC, agar dilution), Biological Example 1; type: cell-based; conditions: Citrobacter koseri, 18 h, Table 25, read-out: Minimum Inhibitory Concentration
[5] = tested on: Acinetobacter calcoaceticus 15473; assay: as above; type: cell-based; conditions: 18 h; Acinetobacter calcoaceticus 15473, Table 25; read-out: Minimum Inhibitory Concentration
[6] = tested on: Streptococcus faecalis 29212; assay: as above; type: cell-based; conditions: Enterococcus faecalis, 18 h; Streptococcus faecalis 29212, Table 25; read-out: Minimum Inhibitory Concentration
[7] = tested on: Staphylococcus aureus 6538p; assay: as above; type: cell-based; conditions: 18 h, Table 25, read-out: Minimum Inhibitory Concentration
[8] = tested on: Klebsiella aerogenes 1976E; assay: as above; type: cell-based; conditions: 18 h, Table 25, read-out: Minimum Inhibitory Concentration
[9] = tested on: Enterobacter cloacae 1194E; assay: microbe, parasite or virus in culture; type: cell-based; conditions: 18 h, read-out: Minimum Inhibitory Concentration
[10] = tested on: Klebsiella aerogenes 1082E; assay: In vitro antibacterial activity (MIC, agar dilution), Biological Example 1; type: cell-based; conditions: 18 h, Table 25, read-out: Minimum Inhibitory Concentration
Escherichia coli 851E = assay: as above; type: cell-based; conditions: 18 h, Table 25, read-out: Minimum Inhibitory Concentration
[11] = tested on: Staphylococcus aureus 241; assay: as above; type: cell-based; conditions: 18 h; Staphylococcus aureus 241, Table 25; read-out: Minimum Inhibitory Concentration
Staphylococcus aureus 77 = assay: as above; type: cell-based; conditions: 18 h; Staphylococcus aureus 77, Table 25; read-out: Minimum Inhibitory Concentration
[12] = tested on: Escherichia coli TEM9 2639E; assay: microbe, parasite or virus in culture; type: cell-based; conditions: TEM92639E, 18 h, read-out: Minimum Inhibitory Concentration
Acute oral toxicity test = conditions: in vivo, ICR male mouse, 7 days
Experimental: To determine the acute oral toxicity of the compounds prepared in Examples 1 and 34, the test solution containing the compounds in various concentrations were orally administered to ICR male mouse in an amount of 10 ml per kg of body weight. For 7 days after administration, the lethality and the conditions of test mouse were observed, from which LD50 value (mg/kg), was calculated.

[13] = tested on: Pseudomonas aeruginosa 1912E; assay: In vitro antibacterial activity (MIC, agar dilution), Biological Example 1; type: cell-based; conditions: 18 h; Pseudomonas aeruginosa 1912E, Table 25; read-out: Minimum Inhibitory Concentration
[14] = tested on: Staphylococcus epidermidis 178; assay: as above; type: cell-based; conditions: 18 h; Staphylococcus epidermidis 178, Table 25; read-out: Minimum Inhibitory Concentration
Enterobacter cloacae P99 = assay: microbe, parasite or virus in culture; type: cell-based; conditions: P99, 18 h, read-out: Minimum Inhibitory Concentration
[15] = tested on: Salmonella typimurium 14028; assay: In vitro antibacterial activity (MIC, agar dilution), Biological Example 1; type: cell-based; conditions: 18 h; Salmonella typimurium 14028, Table 25; read-out: Minimum Inhibitory Concentration
[16] = tested on: Escherichia coli TEM3 3455E; assay: microbe, parasite or virus in culture; type: cell-based; conditions: TEM33455E, 18 h, read-out: Minimum Inhibitory Concentration
Micrococcus luteus 9341 = assay: In vitro antibacterial activity (MIC, agar dilution), Biological Example 1; type: cell-based; conditions: 18 h; Micrococcus luteus 9341, Table 25; read-out: Minimum Inhibitory Concentration
[17] = tested on: Pseudomonas aeruginosa 10145; assay: as above; type: cell-based; conditions: 18 h; Pseudomonas aeruginosa 10145, Table 25; read-out: Minimum Inhibitory Concentration
Bacillus subtilis 6633 = assay: as above; type: cell-based; conditions: 18 h; Bacillus subtilis 6633, Table 25; read-out: Minimum Inhibitory Concentration
[18] = tested on: Escherichia coli TEM5 3739E; assay: microbe, parasite or virus in culture; type: cell-based; conditions: TEM53739E, 18 h, read-out: Minimum Inhibitory Concentration
Escherichia coli 3190Y = assay: In vitro antibacterial activity (MIC, agar dilution), Biological Example 1; type: cell-based; conditions: 18 h, Table 25, read-out: Minimum Inhibitory Concentration
[19] = tested on: Staphylococcus epidermidis 887E; assay: as above; type: cell-based; conditions: 18 h, Table 25, read-out: Minimum Inhibitory Concentration
[20] = tested on: Staphylococcus aureus giorgio; assay: as above; type: cell-based; conditions: 18 h, Table 25, read-out: Minimum Inhibitory Concentration
Escherichia coli 10536 = assay: as above; type: cell-based; conditions: 18 h; Escherichia coli 10536, Table 25; read-out: Minimum Inhibitory Concentration
gram-positive strains = conditions: background art; cited from earlier work
[21] = background art; cited from earlier work
[22] = Chemical stability under heating; conditions: for thermal stability: hydrate
Experimental: The anhydride and each of the hydrates was introduced into a glass vial and maintained at 70° C.

[23] = Equilibrium moisture content determination of hydrates; type: physicochemical
Experimental: Six saturated aqueous salt solutions were introduced into each desiccator to control the inner relative humidity to a specific value as represented in the following Table 28. Then, equilibrium moisture contents of 3 hydrate and 1.5 hydrate prepared in Examples 205 and 206, respectively, were determined at several relative humidities.
Specifically, 100 mg of the sample was spread on a preweighed Petri dish and the total weight was accurately measured, then three of the sample were placed in each desiccator of Table 28. The desiccators were allowed to stand at normal temperature for 7 days and then the sample was taken to be weighed. After 13 days had passed, one of the three samples inside each desiccator was taken and the moisture content of each was measured by the thermogravimetric analysis described in Test Example 2. Equilibrium moisture content at each relative humidity is represented in FIG. 3 (3 hydrate), and FIG. 4 (1.5 hydrate). […] Both hydrates are stable since they keep a constant equilibrium moisture content regardless of the relative humidity change.

[24] = Moisture content according to hydration number; type: physicochemical
Experimental: The moisture content of the hydrate varies with the hydration number (n) of the hydrated molecule. Since the molecular weight of 7-(4-amino-methyl-3-methyloxylminopyrrolidin-1-yl)-1-cyclopropyl-6-fluoro- 4-oxo-1,4-dihydro-1,8-naphthyridine-3-carboxylic acid methanesulfonate is 485.5, the moisture content of the hydrate for n equal to 1, 1.5, 2, 2.5, 3, 3.5 or 4 is calculated to be 3.6%, […], 6.9%, 8.5%, 10.0%, 11.5% or 12.9%, respectively. However, the actual moisture content may differ from the calculated moisture content depending on differences in recrystallization conditions, drying conditions, etc.

In the case of `CON=C1CN(c2nc3c(cc2F)c(=O)c(C(=O)O)cn3C2CC2)CC1CN` (stereo not shown) [anhydride, 7-(4-aminomethyl-3-methyloxyiminopyrrolidin-1-yl)-1-cyclopropyl-6-fluoro-4-oxo-1,4-dihydro-1,8-naphthyridine-3-carboxylic acid methanesulfonate anhydride], the moisture adsorption ([1]; relative humidity 0 to 95%) is reported as “Initial moisture adsorption proceeded very speedily at each relative humidity tested; also recorded: the equilibrium moisture content is dependent upon the relative humidity”, the “time to reach moisture adsorption equilibrium” value ([1]; relative humidity 0 to 95% at 5% intervals, in most cases) is reported as ≤ 2 h and the endothermic peak [2] is reported as “without any endothermic peak”. The Moisture Content ([3]; before humidification) was “about 2.5%” and the Moisture Content ([3]; humidified nitrogen, over 30 minutes, FIG. 8) was “about 10%”.

For `NCC1CN(c2nc3c(cc2F)c(=O)c(C(=O)O)cn3C2CC2)CC1=NOCc1ccccc1` (stereo not shown) [Example 1, 7-(4-aminomethyl-3-benzyloxyimino-pyrrolidin-1-yl)-1-cyclopropyl-6-fluoro-1,4-dihydro-4-oxo-1,8-naphthyridine-3-carboxylic acid], the MIC [4] was 0.063 µg/mL (≈ 0.135 µM), the MIC [5] was ≤ 0.008 µg/mL and the MIC [6] was 0.031 µg/mL (≈ 0.0666 µM). For the same molecule, the MIC [7] was ≤ 0.008 µg/mL, the MIC [8] was 0.25 µg/mL (≈ 0.537 µM) and the MIC [9] was 0.031 µg/mL (≈ 0.0666 µM). For the same molecule, the MIC [10] was 0.063 µg/mL (≈ 0.135 µM), the MIC (Escherichia coli 851E) was 0.016 µg/mL (≈ 0.0344 µM) and the MIC [11] was 2 µg/mL (≈ 4.3 µM). For the same molecule, the MIC (Staphylococcus aureus 77) was ≤ 0.008 µg/mL, the MIC [12] was 0.063 µg/mL (≈ 0.135 µM) and the LD50 at 168 h (Acute oral toxicity test) was > 3000 mg/kg. The MIC [13] was 1 µg/mL (≈ 2.15 µM), the MIC [14] was 2 µg/mL (≈ 4.3 µM) and the MIC (Enterobacter cloacae P99) was ≤ 0.008 µg/mL. For the same molecule, the MIC [15] was 0.13 µg/mL (≈ 0.279 µM), the MIC [16] was 0.25 µg/mL (≈ 0.537 µM) and the MIC (Micrococcus luteus 9341) was 0.063 µg/mL (≈ 0.135 µM). The MIC [17] was 2 µg/mL (≈ 4.3 µM), the MIC (Bacillus subtilis 6633) was ≤ 0.008 µg/mL and the MIC [18] was 0.063 µg/mL (≈ 0.135 µM). The MIC (Escherichia coli 3190Y) was ≤ 0.008 µg/mL, the MIC [19] was ≤ 0.008 µg/mL and the MIC [20] was ≤ 0.008 µg/mL. The MIC (Escherichia coli 10536) was ≤ 0.008 µg/mL.

For `CCn1cc(C(=O)O)c(=O)c2cc(F)c(N3CCNCC3)cc21` [norfloxacin], the “antibacterial activity against gram-positive strains” value (gram-positive strains) is given as “weak antibacterial activity against gram-positive strains” and the “distribution and absorption in living body” value [21] is given as “poor distribution and absorption in living body”.

For `CON=C1CN(c2nc3c(cc2F)c(=O)c(C(=O)O)cn3C2CC2)CC1CN` (stereo not shown) [3 hydrate, 7-(4-aminomethyl-3-methyloxyiminopyrrolidin-1-yl)-1-cyclopropyl-6-fluoro-4-oxo-1,4-dihydro-1,8-naphthyridine-3-carboxylic acid methanesulfonate·3 hydrate], the “thermal stability compared with the anhydride” value ([22]; 70° C., Table 29) was “the same degree of thermal stability as the anhydride”, the thermal stability ([22]; 40320 min) was 94% and the thermal stability [22] was 97%. The “onset of endothermic peak (vaporization of water)” value [2] was “around 50 °C”, the “stability of hydrate towards relative humidity change” value [23] was “stable” and the equilibrium moisture content ([23]; whole relative humidity range tested (23 to 75%)) was “around 10%”. The “Moisture Content” value ([24]; actual moisture content, methanesulfonate hydrates, hydrate) was 9-11% and the “change of moisture content” value ([24]; among stable hydrates) was “lowest”.
